Reference: ChEMBL document CHEMBL2029276, “E297G mutated bile salt export pump (BSEP) function enhancers derived from GW4064: structural development study and separation from farnesoid X receptor-agonistic activity” (Bioorg Med Chem Lett, 2012)

Tests used:
Bile acid receptor = target: T1, Bile acid receptor (Homo sapiens, UniProt Q96RI1); experiment: Agonist activity at human recombinant FXR expressed in HEK293 cells coexpressing CMX-GAL4N by luciferase reporter gene assay; format: functional, cell-based
T1 sequence (Q96RI1 whole entry): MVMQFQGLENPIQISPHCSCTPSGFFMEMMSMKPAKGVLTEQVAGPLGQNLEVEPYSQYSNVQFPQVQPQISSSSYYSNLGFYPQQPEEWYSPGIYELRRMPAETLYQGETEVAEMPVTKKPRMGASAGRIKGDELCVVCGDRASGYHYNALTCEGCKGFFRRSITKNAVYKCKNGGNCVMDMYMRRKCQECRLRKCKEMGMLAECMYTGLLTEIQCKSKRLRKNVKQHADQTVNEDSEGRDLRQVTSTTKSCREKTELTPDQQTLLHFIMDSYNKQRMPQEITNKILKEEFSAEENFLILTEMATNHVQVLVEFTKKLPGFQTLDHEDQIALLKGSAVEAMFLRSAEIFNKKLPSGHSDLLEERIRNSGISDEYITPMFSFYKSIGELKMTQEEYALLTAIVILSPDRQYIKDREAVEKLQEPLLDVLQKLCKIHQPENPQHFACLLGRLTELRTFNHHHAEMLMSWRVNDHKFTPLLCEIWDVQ

Bile salt export pump [1] = target: T2, Bile salt export pump (Homo sapiens, UniProt O95342, E297G); experiment: Enhancement of human BSEP E297G mutant trafficking to cell membrane in MDCK2 cells co-expressing NTCP assessed as accumulation of [3H]taurocholate at 10 uM preincubated for 24 hrs prior incubation with [3H]taurocholate measured after 2 hrs by liquid scintillation counting; details: mdck-ii
T2 sequence (O95342 whole entry E297G): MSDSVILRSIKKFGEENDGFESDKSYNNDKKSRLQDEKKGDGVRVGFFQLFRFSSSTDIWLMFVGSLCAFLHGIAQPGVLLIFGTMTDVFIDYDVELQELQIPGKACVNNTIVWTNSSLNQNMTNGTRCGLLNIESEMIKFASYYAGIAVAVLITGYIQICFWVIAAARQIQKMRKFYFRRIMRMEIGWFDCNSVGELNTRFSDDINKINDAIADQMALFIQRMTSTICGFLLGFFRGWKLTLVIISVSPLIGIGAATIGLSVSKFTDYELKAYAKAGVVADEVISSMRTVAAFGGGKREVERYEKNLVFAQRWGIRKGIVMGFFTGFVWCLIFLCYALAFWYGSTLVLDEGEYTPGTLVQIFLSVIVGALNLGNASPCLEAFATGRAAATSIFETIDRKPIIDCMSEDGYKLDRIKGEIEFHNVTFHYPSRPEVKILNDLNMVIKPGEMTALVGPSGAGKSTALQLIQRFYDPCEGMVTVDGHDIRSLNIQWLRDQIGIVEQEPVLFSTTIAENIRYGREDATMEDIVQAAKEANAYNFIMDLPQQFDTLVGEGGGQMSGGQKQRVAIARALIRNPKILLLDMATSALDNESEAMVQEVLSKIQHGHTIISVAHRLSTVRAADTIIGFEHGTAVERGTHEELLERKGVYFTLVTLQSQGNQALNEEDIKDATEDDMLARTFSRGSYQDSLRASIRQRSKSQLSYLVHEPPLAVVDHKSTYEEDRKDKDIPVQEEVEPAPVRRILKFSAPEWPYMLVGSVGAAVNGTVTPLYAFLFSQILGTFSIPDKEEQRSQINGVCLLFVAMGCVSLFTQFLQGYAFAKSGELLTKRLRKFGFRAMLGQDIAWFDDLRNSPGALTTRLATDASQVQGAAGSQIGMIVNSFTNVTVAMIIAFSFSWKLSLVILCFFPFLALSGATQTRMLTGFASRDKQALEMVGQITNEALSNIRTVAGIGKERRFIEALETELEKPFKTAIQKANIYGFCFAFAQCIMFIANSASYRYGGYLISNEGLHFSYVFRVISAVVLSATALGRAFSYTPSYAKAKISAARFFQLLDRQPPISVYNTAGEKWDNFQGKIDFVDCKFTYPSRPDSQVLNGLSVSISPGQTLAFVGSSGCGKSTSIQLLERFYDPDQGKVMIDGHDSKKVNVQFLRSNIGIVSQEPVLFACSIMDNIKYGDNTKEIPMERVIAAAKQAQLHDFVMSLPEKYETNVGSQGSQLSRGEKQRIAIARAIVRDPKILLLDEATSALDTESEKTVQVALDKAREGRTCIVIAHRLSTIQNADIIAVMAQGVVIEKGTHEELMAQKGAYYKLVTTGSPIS

Bile salt export pump [2] = target: T2, Bile salt export pump; experiment: Enhancement of human BSEP E297G mutant trafficking to cell membrane in MDCK2 cells co-expressing NTCP assessed as accumulation of [3H]taurocholate at 1 uM preincubated for 24 hrs prior incubation with [3H]taurocholate measured after 2 hrs by liquid scintillation counting; details: mdck-ii

EC50 (Bile acid receptor) [µM]	Structure (SMILES)	Activity (Bile salt export pump [1]) [%]	Activity (Bile salt export pump [2]) [%]
> 10	CC(C)c1onc(-c2c(Cl)cccc2Cl)c1COc1ccc(N(Cc2ccccc2)C(=O)c2cccc(C(=O)O)c2)c(Cl)c1	50	–
–	CC(C)c1onc(-c2c(Cl)cccc2Cl)c1COc1ccc(N(C)C(=O)c2cccc(C(=O)O)c2)c(Cl)c1	60	–
1.1	CCCCN(C(=O)c1ccc(OCc2c(-c3c(Cl)cccc3Cl)noc2C(C)C)cc1Cl)c1cccc(C(=O)O)c1	–	–
3	CC(C)c1onc(-c2c(Cl)cccc2Cl)c1COc1ccc(C(=O)N(c2cccc(C(=O)O)c2)c2cccc3ccccc23)c(Cl)c1	–	–
2.6	CC(C)c1onc(-c2c(Cl)cccc2Cl)c1COc1ccc(C(=O)N(Cc2ccccc2)c2ccc(C(=O)O)cc2)c(Cl)c1	–	–
–	CCCCN(C(=O)c1cccc(C(=O)O)c1)c1ccc(OCc2c(-c3c(Cl)cccc3Cl)noc2C(C)C)cc1Cl	42	59
–	C[C@H](CCC(=O)O)[C@H]1CC[C@H]2[C@@H]3[C@H](O)C[C@@H]4C[C@H](O)CC[C@]4(C)[C@H]3CC[C@]12C [CHENODIOL]	50	–
–	CC(C)c1onc(-c2c(Cl)cccc2Cl)c1COc1ccc(C(=O)N(Cc2ccccc2)c2cccc(C(=O)O)c2)c(Cl)c1	31	–
–	CC(C)c1onc(-c2c(Cl)cccc2Cl)c1COc1ccc(NC(=O)c2cccc(C(=O)O)c2)c(Cl)c1	75	–
0.41	CC(C)c1onc(-c2c(Cl)cccc2Cl)c1COc1ccc(N(C(=O)c2cccc(C(=O)O)c2)c2cccc3ccccc23)c(Cl)c1	59	–
–	CC(C)c1onc(-c2c(Cl)cccc2Cl)c1COc1ccc(/C=C/c2cccc(C(=O)O)c2)c(Cl)c1	33	–

Structure (SMILES)	EC50 (Bile acid receptor) [µM]	Activity (Bile salt export pump [1]) [%]	Activity (Bile salt export pump [2]) [%]
C[C@H](CCC(=O)O)[C@H]1CC[C@H]2[C@@H]3CC[C@@H]4C[C@H](O)CC[C@]4(C)[C@H]3C[C@H](O)[C@]12C [DEOXYCHOLIC ACID]	50	–	–
